Experimental data: patent publication US20100324067A1, “TETRACYCLIC DIPYRANO-COUMARIN COMPOUNDS WITH ANTI-HIV AND ANTI-MYCOBACTERIUM TUBERCULOSIS ACTIVITIES” (priority 2007, published 2010)
≈ marks a conversion by molar mass, not a printed value. Read-outs that look alike come from different tables or passages of the source.

Experiments:
host cells of the virus = test: Cell toxicity to the host cells of the virus at 10 μM; assay type: cell-based
[1] = system: CEM-SS cells (human T-lymphoblastic cells); settings: cited from earlier work
HIV-1 [2] = test: Inhibitory activity against HIV-1 (literature method, Chen et al. J Virol 1997); settings: for inhibition at 1 µM: Human immunodeficiency virus 1, read-out: Anti-HIV (%, 1.0 μM); for EC50: Human immunodeficiency virus 1; for anti-HIV-1 activity in vitro compared to (+)-calanolide A / therapeutic index, in words: in words; for Therapeutic index (TI) = 50% cytotoxicity doses/50% effective dose: value in brackets after EC50
Experimental: Inhibitory activity of the coumarin derivatives of the present invention against HIV-1.
Inhibitory activity of the compounds against HIV-1 is assayed using the literature method. The experimental conditions, procedures, reagents and so on of the experiment are referred to the reference of “ZHIWEI CHEN, PEI ZHOU, DAVID D. HO, et al. Genetically divergent strains of simian immuno-deficiency virus use CCR5 as a coreceptor for entry. Journal of Virology, 1997, 71(4): 2705-2714”.

H37Rv strain = H37Rv strain growth; Bioorg. Med. Chem., 2004, 1199-1207; cited from earlier work
HIV-1 [3] = settings: cited from earlier work
[4] = system: Mycobacterium tuberculosis H37Rv (ATCC 27294); test: Microplate Alamar Blue Assay (MABA) in BACTEC 12B medium (TAACF screen); assay type: cell-based
[5] = read-out: anti-TB active compound (MIC90 less than 10 μg/mL), classification

Row | SMILES | inhibition at 1 µM (HIV-1 [2]) [%] | Cell toxicity (10 μM) (host cells of the virus) | melting point [°C] | IC50 [4] [µg/mL] | MIC90 ([4]; MABA, H37Rv, read-out: MIC90) [µg/mL] | also measured
1 | CCCc1cc(=O)oc2c3c(c4c(c12)OC(C)(C)C=C4)O[C@H](C)[C@@H](C)[C@@H]3O [(+)-Calanolide A, (+)-calanolide A] | 86 |  |  |  |  | Cell toxicity (10 μM), number printed before the class symbol (host cells of the virus; 10 μM): 6%; CC50 [1]: 20000 nM; MIC90 (H37Rv strain): 3.13 µg/mL (≈ 8.45 µM); therapeutic index (TI) (HIV-1 [3]; J. MED. CHEM. 1996, 39, 1303): 16-279; EC50 (HIV-1 [3]; anti-HIV-1, literature, read-out: EC50): 100 nM; EC50 (HIV-1 [3]; from J. Med. Chem. 1996, 39(6):1303-13, unit inferred, read-out: EC50 (TI)): 100 to 200 nM; activity against TIBO of pyridinone-resistant A17 strains (HIV-1 [3]; resistant strain A17): active; activity against AZT-1-resistant strains (G-9106) of HIV-1 (HIV-1 [3]; resistant strain G-9106): active
2 | CC1CC(=O)c2c(c3c(c4c(CN5CCN(C)CC5)cc(=O)oc24)OC(C)(C)C=C3)O1 (stereo not drawn) [Example 7, 6,6,10-trimethyl-4-p-methylpiperazidinylmethylene-10,11-dihydro-6H-[2,3-f:2′,3′-h]-tri pyranyl-2,12-dione] | 48.3 | − | 238 to 239 |  |  | 
3 | CCCc1cc(=O)oc2c1c1c(c3occc(=O)c32)C=CC(C)(C)O1 [Example 13, 6,6-dimethyl-4-n-propyl-2H,6H,12H-benzo[1,2-b:3,4-b′:5,6-b″]-tripyranyl-2,12-dione] | 64.9 | − | 102 to 104 |  |  | 
4 | CCCc1cc(=O)oc2c3c(c4c(c12)OC(C)(C)C=C4)OC(c1ccc(C)cc1)CC3=O (stereo not drawn) [Example 17, 6,6-dimethyl-4-n-propyl-10-p-methyl-phenyl-2H,6H,12H-benzo[1,2-b:3,4-b′:5,6-b″]-tripyranyl-2,12-dione] | 57 | − | 174 to 176 |  |  | 
5 | COc1cc(-c2cc(=O)oc3c4c(c5c(c23)OC(C)(C)C=C5)OC(C)CC4=O)cc(OC)c1OC (stereo not drawn) [Example 24, 6,6,10-trimethyl-4-(3,4,5-trimethoxyl)-phenyl-2H,6H,12H-benzo[1,2-b:3,4-b′:5,6-b″]-tripyranyl-2,12-dione] | 58 | − | 129 to 131 |  |  | 
6 | CC1CC(=O)c2c(c3c(c4c5c(c(=O)oc24)CCCC5)OC(C)(C)C=C3)O1 (stereo not drawn) [Example 27, 6,6,10-trimethyl-3,4-cyclohexyl-2H,6H,12H-benzo[1,2-b:3,4-b′:5,6-b″]-tripyranyl-2,12-dione] | 67 | − | 121 to 123 |  |  | 
7 | CCCc1cc(=O)oc2c3c(c4c(c12)OC(C)(C)C=C4)OC(C)CC3=O (stereo not drawn) [Example 29, 6,6,10-trimethyl-4-n-propyl-2H,6H,12H-benzo[1,2-b:3,4-b′:5,6-b″]-tripyranyl-2,12-dione] |  | − | 112 to 115 |  |  | Anti-HIV (%, 1.0 μM) (HIV-1 [2]; compound at 1.0 μM): 73.1%
8 | CCCc1cc(=O)oc2c3c(c4c(c12)OC(CCC)C=C4)OC(C)CC3=O (stereo not drawn) [Example 34, 10-methyl-4,6-di(-n-propyl)-2H,6H,12H-benzo[1,2-b:3,4-b′:5,6-b″]-tripyranyl-2,12-dione] | 54.1 | − | 158 to 160 | 2.88 (≈ 7.8 µM) | 3.18 (≈ 8.64 µM) | MIC90 [4, 5]: < 10 µg/mL
9 | CCCc1cc(=O)oc2c3c(c4c(c12)OC(C)(C)C=C4)OC(CBr)CC3=O (stereo not drawn) [Example 57] | 93.5 | − |  | 0.825 (≈ 1.9 µM) | 1.75 (≈ 4.05 µM) | EC50 (HIV-1 [2]): 2.85 nM; anti-HIV-1 activity in vitro compared to (+)-calanolide A (HIV-1 [2]): much higher inhibitory activity; therapeutic index, in words (HIV-1 [2]): high therapeutic index; Therapeutic index (TI) = 50% cytotoxicity doses/50% effective dose (HIV-1 [2]): > 10526
10 | CCCc1cc(=O)oc2c3c(c4c(c12)OC(C)(C)C=C4)OC1CC1C3=O (stereo not drawn) [Example 70, 6,6,-dimethyl-4-propyl-10,11-cis-cyclopropyl-2H,6H,12H-benzo[1,2-b:3,4-b′:5,6-b″]tripyranyl-2,12-dione] | 68.6 | − | 113 to 115 | 3.31 (≈ 9.38 µM) | 5.54 (≈ 15.7 µM) | MIC90 [4, 5]: < 10 µg/mL; EC50 (HIV-1 [2]): 14.1 nM; anti-HIV-1 activity in vitro compared to (+)-calanolide A (HIV-1 [2]): much higher inhibitory activity; therapeutic index, in words (HIV-1 [2]): high therapeutic index; Therapeutic index (TI) = 50% cytotoxicity doses/50% effective dose (HIV-1 [2]): 709-2127
11 | CCCCC1C=Cc2c3c(c4oc(=O)cc(CCC(F)(F)F)c4c2O1)C(=O)CC(C)O3 (stereo not drawn) [Example 73, 4-(3,3′,3″-trifluoro-n-propyl)-6-n-butyl-10-methyl-2H,6H,12H-benzo[1,2-b:3,4-b′: 5,6-b″]-tripyranyl-2,12-dione] | 53.6 | − | 129 to 130 |  |  | 
12 | CC1CC(=O)c2c(c3c(c4c(CCC(F)(F)F)cc(=O)oc24)OC(c2ccccc2)C=C3)O1 (stereo not drawn) [Example 74, 4-(3,3′, 3″-trifluoro-n-propyl)-6-phenyl-O-methyl-2H,6H, 2H-benzo[1,2-b:3,4-b′:5,6-b″]-tripyranyl-2,12-dione] | 47.6 | − | 171 to 173 | 5.7 (≈ 12.5 µM) | 6.38 (≈ 14 µM) | MIC90 [4, 5]: < 10 µg/mL
13 | C/C=C/C1C=Cc2c3c(c4oc(=O)cc(CCC)c4c2O1)C(=O)C(C)CO3 (stereo not drawn) [Example 76, 4-n-propyl-6-propenyl-11-methyl-2H,6H,12H-benzo[1,2-b:3,4-b′:5,6-b″]-tripyranyl-2,12-dione] | 37.8 | − | 165 to 166 |  |  | 
14 | CCc1cc(=O)oc2c3c(c4c(c12)OC(C)C=C4)OC(C)CC3=O (stereo not drawn) [Example 79, 6,10-dimethyl-4-ethyl-2H,6H,12H-benzo[1,2-b:3,4-b′:5,6-b″]-tripyranyl-2,12-dione] | 57.4 | − | 133 to 134 | 6.07 (≈ 18.6 µM) | 6.84 (≈ 21 µM) | 
15 | CCCc1c(Cl)c(=O)oc2c3c(c4c(c12)OC(C)C=C4)OC(C)CC3=O (stereo not drawn) [Example 81, 6,10-dimethyl-4-n-propyl-3-chloro-2H,6H,12H-benzo[1,2-b:3,4-b′:5,6-b″]-tripyranyl-2,12-dione] | 55.7 | − | 129 to 131 |  |  | 
16 | CCCCc1cc(=O)oc2c3c(c4c(c12)OC(C)C=C4)OC(C)CC3=O (stereo not drawn) [Example 82, 6,10-dimethyl-4-n-butyl-2H,6H,12H-benzo[1,2-b:3,4-b′:5,6-b″]-tripyranyl-2,12-dione] | 75.4 | − | 128 to 129 | 36.3 (≈ 102 µM) | 56.2 (≈ 158 µM) | 
17 | CCc1c(F)c(=O)oc2c3c(c4c(c12)OC(C)C=C4)OC(C)CC3=O (stereo not drawn) [Example 83, 6,10-dimethyl-4-ethyl-3-fluoro-2H, H, 12H-benzo[1,2-b:3,4-b′: 5,6-b″]-tripyranyl-2,12-dione] | 39.5 | − | 141 to 142 | 24.4 (≈ 70.9 µM) | 27.7 (≈ 80.4 µM) | 
18 | C/C=C/C1C=Cc2c3c(c4oc(=O)c(Cl)c(CCC)c4c2O1)C(=O)CC(C)O3 (stereo not drawn) [Example 86, 4-n-propyl-6-propenyl-3-chloro-10-methyl-2H,6H,12H-benzo[1,2-b:3,4-b′:5,6-b″]-tripyranyl-2,12-dione] | 57.3 | − | 142 to 144 |  |  | 
19 | C/C=C/C1C=Cc2c3c(c4oc(=O)cc(CC)c4c2O1)C(=O)CC(C)O3 (stereo not drawn) [Example 87, 4-ethyl-6-propenyl-10-methyl-2H,6H,12H-benzo[1,2-b:3,4-b′:5,6-b″]-tripyranyl-2,12-d ione] | 56.4 | − | 153 to 155 | 51.2 (≈ 145 µM) | > 100 | 
20 | C/C=C/C1C=Cc2c3c(c4oc(=O)c(F)c(CC)c4c2O1)C(=O)CC(C)O3 (stereo not drawn) [Example 88, 4-ethyl-6-propenyl-3-fluoro-10-methyl-2H,6H,12H-benzo[1,2-b:3,4-b′:5,6-b″]-tripyranyl-2,12-dione] | 46.2 | − | 158 to 161 | 70.7 (≈ 191 µM) | > 100 | 
21 | CCCc1c(Cl)c(=O)oc2c3c(c4c(c12)OCC(C)=C4)OC(C)CC3=O (stereo not drawn) [Example 91, 4-n-propyl-3-chloro-7,10-dimethyl-2H,6H,12H-benzo[1,2-b:3,4-b′:5,6-b″]-tripyranyl-2,12-dione] | 49.1 | − | 129 to 131 |  |  | 
22 | CCCc1c(F)c(=O)oc2c3c(c4c(c12)OCC(C)=C4)OC(C)CC3=O (stereo not drawn) [Example 92] | 47.1 | − | 122 to 124 |  |  | 
23 | CCCc1c(Cl)c(=O)oc2c3c(c4c(c12)OCC(C)C4OCC)OC(C)CC3=O (stereo not drawn) [Example 96, 8-ethoxyl-7,10-dimethyl-4-n-propyl-3-chloro-7,8,10,11-tetrahydro-6H-benzo[2,3-f;2′,3′-h]-tripyranyl-2,12-dione] | 51.7 | − | 187 to 189 | 11.1 (≈ 26.4 µM) | 22.2 (≈ 52.8 µM) | 
24 | CCCc1cc(=O)oc2c3c(c4c(c12)OC(c1ccccc1[N+](=O)[O-])C=C4)OC(C)CC3=O (stereo not drawn) [Example 97] | 52.6 | − | 216 to 218 |  |  | 
